Results published in patent US20250332173A1, “COMPOUNDS AND METHODS FOR MODULATING NUCLEIC ACID SPLICING” (REMIX THERAPEUTICS INC., priority 2021, published 2025).
Counter-ions that a name gives are not always drawn. Like-named read-outs stand apart in the source and are kept apart here.

Columns and labels:
MYB mRNA = assay: RT-qPCR splicing assay, MYB canonical junction (CJ) and alternative junction (AJ) mRNA; format: cell-based, human; settings: Homo sapiens; for AC50: increase in MYB alternative junction (AJ) mRNA, read-out: MYB AJ AC50
How it was run: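 Following a 24-hour incubation of A673 or K562 cells with serially diluted compound (3-fold steps, highest final 10 uM), the lysates undergo cDNA synthesis plus qPCR. Canonical and alternative junctions are each quantified against PPIA, GAPDH or GUSB.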

MYB = assay: HiBiT protein abundance assay, MYB HiBiT K562 cell line; format: cell-based, human; settings: HiBiT K562 cell line, 24 hours, top dose 10 μM; read-out: Effect on protein abundance, MYB (IC50 category)
How it was run: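 Endogenous targets in K562 knock-in lines carried a HiBiT tag and were treated for 24 h at 37 °C with 10-point 3-fold dilutions (top 10 μM final, DMSO ≤0.25%). Abundance was read as lytic Nano-Glo HiBiT luminescence. IC50 came from a four-parameter logistic fit of normalized response.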

[1] = Table 5 panel, canonical junction qPCR, compound concentration having 50% response in CJ decrease, read-out: MYB IC50 (decrease in CJ mRNA levels)
[2] = decrease in MYB canonical junction (CJ) mRNA, RT-qPCR, read-out: MYB CJ IC50

| IC50 (MYB mRNA; [1]) | IC50 (MYB mRNA; [2]) | IC50 (MYB) | Compound | AC50 (MYB mRNA; RT-qPCR) |
| --- | --- | --- | --- | --- |
| < 0.1 µM | 0.1 to 1 µM | < 0.1 µM | Cc1cn2nc(-c3cc4ccn([C@H]5CCNC5)c(=O)c4cc3O)cc(C)c2n1 [Compound 641, 6-(2,8-dimethylimidazo[1,2-b]pyridazin-6-yl)-7-hydroxy-2-[(3S)-pyrrolidin-3-yl]isoquinolin-1-one] | < 0.1 µM |
| 0.1 to 1 µM | 0.1 to 1 µM | 0.1 to 1 µM | Cc1cn2cc(-c3cc(O)c4c(=O)n(C5CCNC6(CC6)C5)ncc4c3)cc(Cl)c2n1 (stereo not drawn) [Compound 557] | 0.1 to 1 µM |
| 1 to 10 µM | 0.1 to 1 µM | 1 to 10 µM | Cc1cn2nc(-c3ccc4c(=O)n(C5CCN(CCF)CC5)ncc4c3)cc(C)c2n1 [Compound 515] | 1 to 10 µM |
| > 10 µM | > 10 µM | > 10 µM | CN1CCC(c2ccc3c(=O)n(-c4ccc5nn(C)cc5c4)cnc3c2)CC1 [Compound 177] | > 10 µM |
| > 10 µM | > 10 µM | > 10 µM | CC(=O)Nc1cc(-c2cc(C)c3nc(C)cn3n2)cc2ccn([C@@H]3CCNC3)c(=O)c12 [Compound 650, N-[6-(2,8-dimethylimidazo[1,2-b]pyridazin-6-yl)-1-oxo-2-[(3R)-pyrrolidin-3-yl]-8-isoquinolyl]acetamide] | > 10 µM |
| 1 to 10 µM | 1 to 10 µM | 1 to 10 µM | CC(=O)Nc1cc(-c2cc(C)c3nc(C)cn3n2)cc2ccn([C@H]3CCNC3)c(=O)c12 [Compound 649, N-[6-(2,8-dimethylimidazo[1,2-b]pyridazin-6-yl)-1-oxo-2-[(3S)-pyrrolidin-3-yl]-8-isoquinolyl]acetamide] | 1 to 10 µM |
| > 10 µM | > 10 µM | 1 to 10 µM | Cc1cn2nc(-c3ccc4c(=O)n(C5CCNCC5)ccc4c3)cc(-n3ccccc3=O)c2n1 [Compound 552, 6-[2-methyl-8-(2-oxo-1-pyridyl)imidazo[1,2-b]pyridazin-6-yl]-2-(4-piperidyl)isoquinolin-1-one] | > 10 µM |
| 0.1 to 1 µM | 0.1 to 1 µM | 0.1 to 1 µM | Cc1cn2nc(-c3ccc4c(=O)n(C5CCNCC5)ccc4c3)cc(CC#N)c2n1 [Compound 520, 2-[2-methyl-6-[1-oxo-2-(4-piperidyl)-6-isoquinolyl]imidazo[1,2-b]pyridazin-8-yl]acetonitrile] | 0.1 to 1 µM |
| > 10 µM | > 10 µM | > 10 µM | Cn1cc2c(=O)n(-c3ccc4c(=O)n(C5CCNCC5)ccc4c3)ccc2n1 [Compound 530, 6-{2-methyl-4-oxopyrazolo[4,3-c]pyridin-5-yl}-2-(piperidin-4-yl)isoquinolin-1-one] | > 10 µM |
| 1 to 10 µM | 1 to 10 µM | 1 to 10 µM | Cc1cn2cc(-c3cc(F)c4c(=O)n([C@H]5CNC[C@H]5C)ccc4c3)cc(F)c2n1 [Compound 652, 8-fluoro-6-(8-fluoro-2-methyl-imidazo[1,2-a]pyridin-6-yl)-2-[(3R,4R)-4-methylpyrrolidin-3-yl]isoquinolin-1-one] | 1 to 10 µM |
| 1 to 10 µM | 1 to 10 µM | 1 to 10 µM | Cc1cc(-c2ccc3c(=O)n(N4CCN(C)CC4)cnc3c2)cc2cn(C)nc12 [Compound 175] | 1 to 10 µM |
| < 0.1 µM | 0.1 to 1 µM | 0.1 to 1 µM | Cc1cn2nc(-c3cc(F)c4c(=O)n([C@H]5CCN(C)C6(CC6)C5)ncc4c3)cc(C)c2n1 [Compound 638] | < 0.1 µM |
| > 10 µM | > 10 µM | 1 to 10 µM | Cn1ccc2nn(-c3ccc4c(=O)n(C5CCNCC5)ccc4c3)cc2c1=O [Compound 522, 6-{5-methyl-4-oxopyrazolo[4,3-c]pyridin-2-yl}-2-(piperidin-4-yl)isoquinolin-1-one] | > 10 µM |
| 1 to 10 µM | > 10 µM | 1 to 10 µM | CNC(=O)c1cc(-c2ccc3c(=O)n(C4CCNCC4)ccc3c2)nn2cc(C)nc12 [Compound 518, N, 2-dimethyl-6-[1-oxo-2-(4-piperidyl)-6-isoquinolyl]imidazo[1,2-b]pyridazine-8-carboxamide] | 1 to 10 µM |
| 1 to 10 µM | 1 to 10 µM | 1 to 10 µM | Cc1cn2nc(-c3ccc4c(=O)n(C5CCNCC5)ccc4c3)cc(Cc3nnc[nH]3)c2n1 [Compound 535, 6-[2-methyl-8-(4H-1,2,4-triazol-3-ylmethyl)imidazo[1,2-b]pyridazin-6-yl]-2-(4-piperidyl) isoquinolin-1-one] | 1 to 10 µM |
| 1 to 10 µM | 1 to 10 µM | 1 to 10 µM | Cc1nc2c(C)cc(-c3ccc4c(=O)n(C5CCNC6(CC6)C5)ncc4c3)cc2o1 (stereo not drawn) [Compound 513] | 1 to 10 µM |
| 0.1 to 1 µM | 1 to 10 µM | 1 to 10 µM | Cc1cn2cc(-c3cc(F)c4c(=O)n([C@H]5CNC[C@@H]5F)ccc4c3)cc(F)c2n1 [Compound 644] | 0.1 to 1 µM |

| IC50 (MYB mRNA; [1]) | IC50 (MYB mRNA; [2]) | IC50 (MYB) | Compound | AC50 (MYB mRNA; RT-qPCR) |
| --- | --- | --- | --- | --- |
| 0.1 to 1 µM | 0.1 to 1 µM | 0.1 to 1 µM | CCN1CCC(n2ncc3cc(-c4cc(C)c5nc(C)cn5n4)cc(F)c3c2=O)CC1 [Compound 537] | 0.1 to 1 µM |
| 1 to 10 µM | 1 to 10 µM | 0.1 to 1 µM | CNC(=O)Cc1cc(-c2ccc3c(=O)n(C4CCNCC4)ccc3c2)nn2cc(C)nc12 [Compound 534, N-methyl-2-[2-methyl-6-[1-oxo-2-(4-piperidyl)-6-isoquinolyl]imidazo[1,2-b]pyridazin-8-yl]acetamide] | 1 to 10 µM |
| 0.1 to 1 µM | 0.1 to 1 µM | 0.1 to 1 µM | Cc1cn2cc(-c3cc(F)c4c(=O)n(C5CCNC6(CC6)C5)ncc4c3)cc(Cl)c2n1 (stereo not drawn) [Compound 556] | 0.1 to 1 µM |
| 0.1 to 1 µM | 0.1 to 1 µM | < 0.1 µM | Cc1cn2nc(-c3ccc4c(=O)n(C5CCNCC5)cnc4c3)cc(C)c2n1 [Compound 181] | 0.1 to 1 µM |
| 0.1 to 1 µM | 0.1 to 1 µM | 0.1 to 1 µM | COC(=O)Cc1cc(-c2ccc3c(=O)n(C4CCNCC4)ccc3c2)nn2cc(C)nc12 [Compound 527] | 0.1 to 1 µM |
| < 0.1 µM | < 0.1 µM | < 0.1 µM | Cc1cn2nc(-c3ccc4c(=O)n(C5CCNCC5)ccc4c3)cc(Oc3ccc(F)cc3)c2n1 [Compound 546, 6-[8-(4-fluorophenoxy)-2-methyl-imidazo[1,2-b]pyridazin-6-yl]-2-(4-piperidyl) isoquinolin-1-one; hydrochloride] | < 0.1 µM |
| 0.1 to 1 µM | 1 to 10 µM | 0.1 to 1 µM | Cc1cn2cc(-c3cc(F)c4c(=O)n(C5CCNCC5)cnc4c3)cc(C#N)c2n1 [Compound 588] | 0.1 to 1 µM |
| < 0.1 µM | < 0.1 µM | < 0.1 µM | Cc1cn2nc(-c3cc(O)c4c(=O)n(C5CCNCC5)ncc4c3)cc(C)c2n1 [Compound 541] | < 0.1 µM |
| < 0.1 µM | < 0.1 µM | < 0.1 µM | Cc1cn2nc(-c3cc(F)c4c(=O)n([C@@H]5CCN(C)C6(CC6)C5)ncc4c3)cc(C)c2n1 [Compound 637] | < 0.1 µM |
| > 10 µM | > 10 µM | 1 to 10 µM | CNc1cc(-c2cc(C)c3nc(C)cn3n2)cc2ccn([C@@H]3CCNC3)c(=O)c12 [Compound 648, 6-(2,8-dimethylimidazo[1,2-b]pyridazin-6-yl)-8-(methylamino)-2-[(3R)-pyrrolidin-3-yl]isoquinolin-1-one] | > 10 µM |
| < 0.1 µM | < 0.1 µM | < 0.1 µM | Cc1cn2nc(-c3cc(F)c4c(=O)n(C5CCNCC5)ncc4c3)cc(C)c2n1 [Compound 540] | < 0.1 µM |
| < 0.1 µM | 0.1 to 1 µM | < 0.1 µM | Cc1cn2nc(-c3ccc4c(=O)n(C5CCNCC5)ncc4c3)cc(Oc3ccccc3)c2n1 [Compound 549, 6-(2-methyl-8-phenoxy-imidazo[1,2-b]pyridazin-6-yl)-2-(4-piperidyl) phthalazin-1-one] | < 0.1 µM |
| < 0.1 µM | < 0.1 µM | < 0.1 µM | Cc1cn2nc(-c3cc(F)c4c(=O)n(C5CCN(C)CC5)ncc4c3)cc(C)c2n1 [Compound 539] | < 0.1 µM |
| 1 to 10 µM | 1 to 10 µM | 1 to 10 µM | Cc1cn2nc(-c3ccc4c(=O)n(C5CCNCC5)ccc4c3)cc(CC(N)=O)c2n1 [Compound 528, 2-(2-methyl-6-(1-oxo-2-(piperidin-4-yl)-1,2-dihydroisoquinolin-6-yl)imidazo[1,2-b]pyridazin-8-yl) acetamide] | 1 to 10 µM |
| 1 to 10 µM | 1 to 10 µM | 1 to 10 µM | Cc1cn2nc(-c3cc(F)c4c(=O)n(C5CCNC5)cnc4c3)cc(C)c2n1 (stereo not drawn) [Compound 589, 7-{2,8-dimethylimidazo[1,2-b]pyridazin-6-yl}-5-fluoro-3-(pyrrolidin-3-yl)quinazolin-4-one] | 1 to 10 µM |
| < 0.1 µM | < 0.1 µM | < 0.1 µM | Cc1cn2cc(-c3cc(F)c4c(=O)n(C5CC(C)NC(C)C5)ccc4c3)cc(F)c2n1 (stereo not drawn) [Compound 651] | < 0.1 µM |
